From patent US9034905B2, “Synergistic microbicidal combinations” (Rohm and Haas Company, priority 2003, dated 2015)
Like-named read-outs stand apart in the source and are kept apart here.

How the values were obtained:
Format in all cases: cell-based
[1] = test system: Aspergillus niger (A. niger—ATCC 16404); assay: Synergy test, microtiter plate high resolution MIC assay, mold; details: for MIC: Aspergillus niger, read-out: MIC of the microbicide acting alone (QA or QB); for SI (synergy index, Qa/QA+Qb/QB): <1 synergism, 1 additivity, >1 antagonism
Experimental: (§1) When the sum of Qa/QA and Qb/QB is greater than one, antagonism is indicated. […] The lower the SI, the greater the synergy shown by that particular mixture. The minimum inhibitory concentration (MIC) of a microbicide is the lowest concentration tested under a specific set of conditions that prevents the growth of added microorganisms.
(§2) Synergy tests were conducted using standard microtiter plate assays with media designed for optimal growth of the test microorganism. Minimal salt medium supplemented with 0.2% glucose and 0.1% yeast extract (M9GY medium) was used for testing bacteria; Potato Dextrose Broth (PDB medium) was used for testing yeast and mold. In this method, a wide range of combinations of microbicides was tested by conducting high resolution MIC assays in the presence of various concentrations of MI. High resolution MICs were determined by adding varying amounts of microbicide to one column of a microtitre plate and doing subsequent ten-fold dilutions using an automated liquid handling system to obtain a series of endpoints ranging from 2 ppm to 10,000 ppm active ingredient. […] The bacteria were used at a concentration of about 5×10^6 bacteria per mL and the yeast and mold at 5×10^5 fungi per mL. These microorganisms are representative of natural contaminants in many consumer and industrial applications. […] (yeast and mold) or 30° C. (bacteria).
(§3) In each test, First Component (A) was MI and the Second Component (B) was the other commercial microbicide.

[2] = test system: Candida albicans (C. albicans—ATCC 10231); assay: Synergy test, microtiter plate high resolution MIC assay, yeast; details: for MIC: Candida albicans, read-out: MIC of the microbicide acting alone (QA or QB); for SI (synergy index, Qa/QA+Qb/QB): <1 synergism, 1 additivity, >1 antagonism
Experimental: as §1, §2, §3

[3] = test system: Staphylococcus aureus (S. aureus—ATCC #6538); assay: Synergy test, microtiter plate high resolution MIC assay, Gram (+) bacteria; details: for MIC: Staphylococcus aureus; for SI (synergy index, Qa/QA+Qb/QB): <1 synergism, 1 additivity, >1 antagonism
Experimental: as §1, §2, §3

[4] = test system: Pseudomonas aeruginosa (P. aeruginosa—ATCC #9027); assay: Synergy test, microtiter plate high resolution MIC assay, Gram (−) bacteria; details: for MIC: Pseudomonas aeruginosa, read-out: MIC of the microbicide acting alone (QA or QB); for SI (synergy index, Qa/QA+Qb/QB): <1 synergism, 1 additivity, >1 antagonism
Experimental: as §1, §2, §3

[5] = ATCC16404, 168 h, A. niger, 1 week, PDB medium, 25° C.
[6] = ATCC10231, C. albicans, 72 hours, PDB medium, 25° C.
[7] = ATCC6538, S. aureus, 24 hours, M9GY medium, 30° C., read-out: MIC of the microbicide acting alone (QA or QB)
[8] = ATCC9027, P. aeruginosa, 48 hours, M9GY medium, 30° C.
[9] = ATCC6538, 72 h, read-out: MIC of the microbicide acting alone (QA or QB), S. aureus, 72 hours, M9GY medium, 30° C.
[10] = ATCC6538, S. aureus, 72 hours, M9GY medium, 30° C., read-out: MIC of the microbicide acting alone (QA or QB)
[11] = ATCC9027, P. aeruginosa, 24 hours, M9GY medium, 30° C.

Row | Compound | MIC [1, 5] | MIC [2, 6] | SI (synergy index, Qa/QA+Qb/QB) ([1]; A. niger, 1 week) | SI (synergy index, Qa/QA+Qb/QB) ([2]; C. albicans, 48 hours) | SI (synergy index, Qa/QA+Qb/QB) ([3]; S. aureus, 72 hours) | SI (synergy index, Qa/QA+Qb/QB) ([4]; P. aeruginosa, 72 hours) | SI (synergy index, Qa/QA+Qb/QB) ([2]; C. albicans, 72 hours) | MIC [3, 10] | SI (synergy index, Qa/QA+Qb/QB) ([4]; P. aeruginosa, 24 hours) | MIC [4, 11] | also measured
1 | O=C(O)CC(O)(CC(=O)O)C(=O)O [citric acid] | 10000 mg/L | 10000 mg/L |  |  |  |  |  |  |  |  | MIC [3, 7]: 4000 mg/L; MIC [4, 8]: 6000 mg/L
2 | O=C(O)c1ccccc1 [benzoic acid] |  |  | 1.00 | 1.00 | 1.00 | 1.00 |  |  |  |  | MIC ([1]; ATCC16404, 168 h): 10000 mg/L; MIC ([2]; ATCC10231, 48 h): 5000 mg/L; MIC [3, 9]: 6000 mg/L; MIC ([4]; ATCC9027, 72 h): 6000 mg/L
3 | CC1(C)C(=O)N(CO)C(=O)N1CO [1,3-dimethylol-5,5-dimethylhydantoin] | 3000 mg/L | 3000 mg/L | 1.00 |  | 1.00 |  | 1.00 | 200 mg/L | 1.00 | 300 mg/L | 
4 | zinc pyrithione |  |  | 1.00 | 1.00 | 1.00 | 1.00 |  |  |  |  | MIC of the microbicide acting alone (QA or QB) ([1]; A. niger, 1 week, PDB medium, 25° C.): 80 ppm; MIC of the microbicide acting alone (QA or QB) ([2]; C. albicans, 48 hours, PDB medium, 25° C.): 80 ppm; MIC of the microbicide acting alone (QA or QB) ([3]; S. aureus, 72 hours, M9GY medium, 30° C.): 20 ppm; MIC of the microbicide acting alone (QA or QB) ([4]; P. aeruginosa, 72 hours, M9GY medium, 30° C.): 200 ppm
5 | Cn1sccc1=O [2-methyl-3-isothiazolone] |  |  | 1.00 | 1.00 | 1.00 | 1.00 | 1.00 |  | 1.00 |  | SI (synergy index, Qa/QA+Qb/QB) ([1]; A. niger, 72 hours): 1.00; SI (synergy index, Qa/QA+Qb/QB) ([1]; A. niger, 96 hours): 1.00; MIC ([1]; ATCC16404, 72 h): 300 mg/L; MIC ([1]; ATCC16404, 96 h): 300 mg/L; MIC ([1]; ATCC16404, 168 h): 300 mg/L; MIC ([2]; ATCC10231, 48 h): 200 mg/L; MIC ([2]; ATCC10231, 72 h): 200 mg/L; SI (synergy index, Qa/QA+Qb/QB) ([3]; S. aureus, 24 hours): 1.00; MIC ([3]; ATCC6538, 24 h, read-out: MIC of the microbicide acting alone (QA or QB), S. aureus, 24 hours, M9GY medium, 30° C.): 40 mg/L; MIC [3, 9]: 60 mg/L; SI (synergy index, Qa/QA+Qb/QB) ([4]; P. aeruginosa, 48 hours): 1.00; MIC ([4]; ATCC9027, 24 h): 15 mg/L; MIC ([4]; ATCC9027, 48 h): 20 mg/L; MIC ([4]; ATCC9027, 72 h): 20 mg/L
6 | N#CCCC(Br)(C#N)CBr (stereo not shown) [1,2-dibromo-2,4-dicyanobutane] | 100 mg/L | 500 mg/L | 1.00 |  | 1.00 |  | 1.00 | 1000 mg/L | 1.00 | 800 mg/L | 
7 | OCc1ccccc1 [benzyl alcohol] |  |  |  | 1.00 | 1.00 |  |  | 8000 mg/L | 1.00 | 6000 mg/L | SI (synergy index, Qa/QA+Qb/QB) ([1]; A. niger, 72 hours): 1.00; MIC ([1]; ATCC16404, A. niger, 72 hours, PDB medium, 25° C.): 8000 mg/L; MIC ([2]; ATCC10231, C. albicans, 48 hours, PDB medium, 25° C.): 6000 mg/L
8 | CC(C)(C)C(=O)C(Oc1ccc(Cl)cc1)n1ccnc1 (stereo not shown) [climbazole] |  | 300 mg/L |  |  |  |  | 1.00 |  |  |  | SI (synergy index, Qa/QA+Qb/QB) ([3]; S. aureus, 24 hours): 1.00; MIC [3, 7]: 2000 mg/L
9 | C/C=C/C=C/C(=O)O [sorbic acid] |  | 400 mg/L |  |  | 1.00 |  | 1.00 | 10000 mg/L |  |  | SI (synergy index, Qa/QA+Qb/QB) ([1]; A. niger, 96 hours): 1.00; MIC ([1]; ATCC16404, A. niger, 96 hours, PDB medium, 25° C.): 4000 mg/L; SI (synergy index, Qa/QA+Qb/QB) ([4]; P. aeruginosa, 48 hours): 1.00; MIC [4, 8]: 10000 mg/L
